In ChEMBL document CHEMBL1131953, “Synthesis of a tetrasubstituted bicyclo [2.2.2] octane as a potential inhibitor of influenza virus sialidase” (Bioorg Med Chem Lett, 1999):

What was measured:
[1] = test system: Influenza B virus; assay: Inhibitory activity against sialidase of influenza B; type: functional, organism-based
[2] = test system: Influenza A virus; assay: Inhibitory activity against sialidase of influenza A; type: functional, organism-based
[3] = test system: Influenza B virus; assay: Inhibitory activity against sialidase of influenza B at a concentration of 660 uM; type: functional

| SMILES | IC50 [1] | IC50 [2] | inhibition at 660 µM [3] |
| --- | --- | --- | --- |
| CCCO[C@@H]1CC2(C(=O)O)CC[C@@]1(NC(C)=O)[C@@H](O)C2 (single isomer, unassigned) | 660 µM | 660 µM | 12% |
| CCCO[C@@H]1C=C(C(=O)O)C[C@H](N)[C@H]1NC(C)=O | – | 0.13 µM | – |
